Experimental data reported in publication PMC6125496 (Antimicrobial Agents and Chemotherapy, 2018).
Values after ≈ are worked out from the molar mass of the structure shown. Like-named read-outs stand apart in the source and are kept apart here. Non-standard residues stand in square brackets, D forms with d. Residues, ends and D or L forms follow the SMILES beside them. Dab(3S-OH) = NC[C@H](O)[C@H](N)C(=O)O; Phe(2-F) = N[C@@H](Cc1ccccc1F)C(=O)O; ΔZArg = N=C(N)NCC/C=C(\N)C(=O)O; dOrn = NCCC[C@@H](N)C(=O)O; Dab = NCC[C@H](N)C(=O)O

Experiments:
[1] = system: Escherichia coli, colistin-resistant (25)
Text: (§1) Reference strains are from the German Collection of Microorganisms and Cell Cultures (DSMZ), the American Type Culture Collection (ATCC), the National Collection of Type Cultures (NCTC), and the Medical and Molecular Microbiology, Faculty of Science and Medicine, University of Fribourg, Switzerland.

[2] = system: Gentamicin-resistant E. coli (6); details: 6 gentamicin-resistant isolates
Text: as §1

[3] = system: Klebsiella pneumoniae, colistin resistant (46)
Text: as §1

[4] = in vivo; details: female, plasma, iv
Description: Pharmacokinetic analyses were performed by Pharmacelsus (Saarbrücken, Germany). […] Blood (100 μl) was collected from three animals per time point (5, 10, 20, 30, 60, and 120 min postdose for mice and 5, 15, 30, 60, 180, and 420 min postdose for rats) in tubes containing K3-EDTA as an anticoagulant. Samples were stored on ice and centrifuged at 6,000 rpm for 10 min at 4°C. A sample volume of 50 μl was mixed with 5 μl of solvent (acetonitrile-H2O-DMSO, [5/4/1, vol/vol/vol] plus 1% formic acid). A volume of 10 μl of solvent containing the internal standard and 50 μl of precipitant (10% TCA) were added to 55 μl of sample. The mixture was vortexed and centrifuged at 6,000 × g (room temperature) for 10 min. The protein-free supernatant was analyzed by LC-MS using an Ultimate 3000RS ultrahigh-performance liquid chromatograph (U-HPLC) coupled with an Orbitrap Q Exactive mass spectrometer.
Analytes were separated on a Accurore phenyl-hexyl analytical column (2.1 by 50 mm, 2.6 μm; Thermo, Germany) using a linear gradient of mobile phase A (acetonitrile-0.2% heptafluorobutyric acid)-mobile phase B (water-0.2% heptafluorobutyric acid), starting from 5% mobile phase A to 97% in 2.2 min, and a flow rate of […]. Peaks were analyzed by mass spectrometry (ESI ionization in MRM mode) using Xcalibur 4.0 software. The products analyzed, [M + 2H]^2+ and [M + 3H]^3+, were 539.8 and 360.2 Da, respectively. PK parameters were calculated using a noncompartmental analysis model and Kinetica 5.0 software (Thermo Scientific, Waltham, MA). The mean plasma concentrations from all three mice at each time point were used in the calculation.

[5] = molecular target: hERG (Homo sapiens, UniProt Q12809); experiment: in vitro
Sequence of hERG (Q12809 whole entry): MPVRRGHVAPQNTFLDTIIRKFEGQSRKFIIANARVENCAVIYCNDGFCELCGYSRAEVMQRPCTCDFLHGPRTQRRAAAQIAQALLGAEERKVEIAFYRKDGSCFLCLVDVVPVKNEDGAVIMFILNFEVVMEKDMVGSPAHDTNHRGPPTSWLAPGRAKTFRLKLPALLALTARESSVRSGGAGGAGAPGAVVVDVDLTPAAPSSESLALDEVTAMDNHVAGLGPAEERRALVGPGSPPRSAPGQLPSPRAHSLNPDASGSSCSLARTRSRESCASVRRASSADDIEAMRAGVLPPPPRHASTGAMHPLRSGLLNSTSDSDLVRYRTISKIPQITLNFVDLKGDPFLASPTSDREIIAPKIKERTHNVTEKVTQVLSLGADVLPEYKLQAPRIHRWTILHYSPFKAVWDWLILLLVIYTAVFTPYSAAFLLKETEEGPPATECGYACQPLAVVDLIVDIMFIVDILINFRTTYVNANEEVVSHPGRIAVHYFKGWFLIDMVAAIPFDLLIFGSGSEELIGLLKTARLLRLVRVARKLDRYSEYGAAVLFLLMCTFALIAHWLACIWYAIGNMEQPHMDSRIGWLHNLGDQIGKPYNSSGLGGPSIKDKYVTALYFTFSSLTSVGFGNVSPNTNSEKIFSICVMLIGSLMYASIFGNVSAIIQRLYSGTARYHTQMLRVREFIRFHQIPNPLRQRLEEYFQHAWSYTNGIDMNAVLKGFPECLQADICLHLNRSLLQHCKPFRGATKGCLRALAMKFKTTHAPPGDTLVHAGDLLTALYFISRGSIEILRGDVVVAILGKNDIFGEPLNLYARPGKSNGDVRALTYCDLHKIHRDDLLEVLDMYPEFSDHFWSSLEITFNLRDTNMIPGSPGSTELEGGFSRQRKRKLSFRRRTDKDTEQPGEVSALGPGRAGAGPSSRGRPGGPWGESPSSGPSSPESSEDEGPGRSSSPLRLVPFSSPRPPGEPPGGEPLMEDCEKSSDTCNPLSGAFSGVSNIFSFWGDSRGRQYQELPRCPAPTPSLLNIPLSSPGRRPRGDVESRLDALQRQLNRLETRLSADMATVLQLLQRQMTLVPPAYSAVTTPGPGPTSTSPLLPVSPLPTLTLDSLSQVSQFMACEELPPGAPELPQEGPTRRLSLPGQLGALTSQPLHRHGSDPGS
Description: Inhibition of the human ether-a-go-go-related gene (hERG) cardiac potassium ion channel was determined by Eurofins Panlabs (Eurofins Panlabs, Inc., St. Charles, MO) in CHO-K1 (Chinese hamster ovary) cells stably transfected with human hERG cDNA using QPatch automated whole-cell patch clamp electrophysiology as described in reference [45]. […] In this method, the extracellular solution (control) is applied first and the cell is stabilized in the solution for 5 min. Then the test compound is applied from low to high concentrations sequentially on the same cell, with 5 min for each test concentration, at room temperature.

[6] = system: Enterobacter cloacae 3047; details: Ambler class B carbapenemase; NDM-1 + CTX-M15 + TEM-1 + OXA-1
Text: as §1

[7] = system: Enterobacter cloacae BEU; details: Ambler class D carbapenemase; OXA-48 + CTX-M15 + SHV-12 + TEM-1 + OXA-1 + DHA-1
Text: as §1

[8] = system: Enterobacter cloacae KBM15; details: Ambler class A carbapenemase; KPC-2 + TEM-1 + OXA-9
Text: as §1

[9] = system: Enterobacter cloacae YAM; details: Ambler class D carbapenemase; OXA-48 + CTX-M15 + TEM-1 + OXA-1 + DHA-1
Text: as §1

[10] = system: Escherichia coli COL; details: Ambler class A carbapenemase; KPC-2 + TEM-1 + CTX-M9
Text: as §1

[11] = system: Escherichia coli DOV; details: Ambler class D carbapenemase; OXA-48 + TEM-1 + CTX-M15 + OXA-1
Text: as §1

[12] = system: Escherichia coli EGB957; details: Ambler class B carbapenemase; VIM-1 + OXA-48 + TEM-1 + CMY-4 + OXA-1
Text: as §1

[13] = system: Escherichia coli GAL; details: Ambler class B carbapenemase; NDM-6 + OXA-1 + CTX-M15
Text: as §1

[14] = system: Escherichia coli MON; details: Ambler class B carbapenemase; NDM-5 + CTX-M15 + TEM-1
Text: as §1

[15] = system: Klebsiella pneumoniae A33504; details: Ambler class A carbapenemase; KPC-2+ SHV-11 + TEM-1 + CTX-M-2 + OXA-9
Text: as §1

[16] = system: Klebsiella pneumoniae ATCC BAA-2146; details: Ambler class B carbapenemase; NDM-1 + CTX-M15 + TEM-1 + CMY-6 + OXA-1 + SHV-1
Text: as §1

Molecule: N=C(N)NCC/C=C(\NC(=O)[C@H](CCCCN)NC(=O)[C@H](Cc1ccccc1F)NC(=O)[C@@H]1CCCN1C(=O)[C@@H](CCCN)NC(=O)CNC(=O)[C@H](CCN)NC(=O)[C@@H](NC(=O)[C@@H](N)CCCCN)[C@@H](O)CN)C(=O)O [NOSO-502] (H-K[Dab(3S-OH)][Dab]G[dOrn]P[Phe(2-F)]K[ΔZArg]-OH)
- MIC range ([1]; Unknown mechanism (2 isolates)): 1 to 2 µg/mL
- MIC range ([1]; mcr-1 (21 isolates)): 1 to 4 µg/mL
- MIC range ([1]; mcr-2 (1 isolate)): 1 µg/mL (≈ 0.927 µM)
- MIC range ([1]; mcr-3 (1 isolate)): 1 µg/mL (≈ 0.927 µM)
- MIC range [2]: 4 µg/mL (≈ 3.71 µM)
- MIC range ([3]; Unknown mechanism (1)): 0.5 µg/mL (≈ 0.464 µM)
- MIC range ([3]; crrB F84S substitution (1)): 8 µg/mL (≈ 7.42 µM)
- MIC range ([3]; crrB G183V substitution (1)): 64 µg/mL (≈ 59.4 µM)
- MIC range ([3]; crrB N141Y substitution (1)): 16 µg/mL (≈ 14.8 µM)
- MIC range ([3]; crrB P151L substitution (1)): 128 µg/mL (≈ 119 µM)
- MIC range ([3]; mcr-1 (1)): 0.5 µg/mL (≈ 0.464 µM)
- MIC range ([3]; mgrB IS1R between +44 and +45 (2)): 1 µg/mL (≈ 0.927 µM)
- MIC range ([3]; mgrB IS1R into promoter between −45 and −46 (3)): 0.5 to 1 µg/mL
- MIC range ([3]; mgrB IS5 between +74 and +75 (4)): 0.5 to 2 µg/mL
- MIC range ([3]; mgrB IS903B between +69 and +70 (2)): 0.25 to 1 µg/mL
- MIC range ([3]; mgrB ISKpn14 into promoter between −28 and −29 (2)): 0.5 to 2 µg/mL
- MIC range ([3]; mgrB ISKpn26-like between +74 and +75 (2)): 1 µg/mL (≈ 0.927 µM)
- MIC range ([3]; mgrB M27K substitution (1)): 2 µg/mL (≈ 1.85 µM)
- MIC range ([3]; mgrB N42Y and K43I substitutions (1)): 2 µg/mL (≈ 1.85 µM)
- MIC range ([3]; mgrB W20R substitution (1)): 0.5 µg/mL (≈ 0.464 µM)
- MIC range ([3]; mgrB W47R substitution (1)): 1 µg/mL (≈ 0.927 µM)
- MIC range ([3]; mgrB full deletion (5)): 0.5 to 1 µg/mL
- MIC range ([3]; mgrB premature termination (6)): 0.5 to 1 µg/mL
- MIC range ([3]; phoQ R16C substitution (1)): 2 µg/mL (≈ 1.85 µM)
- MIC range ([3]; pmrA G53S substitution (2)): 1 to 2 µg/mL
- MIC range ([3]; pmrB L17Q substitution (1)): 1 µg/mL (≈ 0.927 µM)
- MIC range ([3]; pmrB T157P substitution (6)): 0.25 to 16 µg/mL
- AUC(0-t) ([4]; CD-1, mouse, 30 mg/kg): 8880 ng·h/mL
- Cmax ([4]; CD-1, mouse, 30 mg/kg): 23500 ng/mL
- Vd ([4]; CD-1, mouse, 30 mg/kg): 0.66 L/kg
- clearance ([4]; CD-1, mouse, 30 mg/kg): 18.8 mL/min/kg
- half-life ([4]; CD-1, mouse, 30 mg/kg): 25 min
- AUC(0-t) ([4]; Sprague-Dawley, rat, 15 mg/kg): 7990 ng·h/mL
- Cmax ([4]; Sprague-Dawley, rat, 15 mg/kg): 40700 ng/mL
- Vd ([4]; Sprague-Dawley, rat, 15 mg/kg): 0.94 L/kg
- clearance ([4]; Sprague-Dawley, rat, 15 mg/kg): 32 mL/min/kg
- half-life ([4]; Sprague-Dawley, rat, 15 mg/kg): 90 min
- inhibition at 5 min, 256 µM [5]: 2.6%
- inhibition at 5 min, 512 µM [5]: 1.9%

Molecule: polymyxin B [PMB]
- MIC [6]: 0.5 µg/mL
- MIC [7]: 16 µg/mL
- MIC [8]: 0.5 µg/mL
- MIC [9]: 1 µg/mL
- MIC [10]: 0.5 µg/mL
- MIC [11]: 0.5 µg/mL
- MIC [12]: 0.5 µg/mL
- MIC [13]: 0.25 µg/mL
- MIC [14]: 0.5 µg/mL
- MIC [15]: 0.5 µg/mL
- MIC [16]: 1 µg/mL
